Experimental data taken from patent US11845749B1, “Substituted pyrido[4′,3′:5,6]pyrazino[1,2-a]indoles as anticancer agents” (KING FAISAL UNIVERSITY, priority 2023, dated 2023).

Legend:
MCF7 (breast) = assay: In vitro cytotoxic activity (MTT) assay, MCF7; type: cell-based; conditions: Homo sapiens, cells exposed for 96 hours, read-out: IC50, 50% inhibition of cell proliferation
Procedure: (§1) Compounds 1-12 were screened for their in vitro cytotoxic activity utilizing a 3-(4,5-dimethyl-thiazol-2-yl)-2,5-diphenyltetrazolium bromide (MTT) assay against selected cancer human cell lines consisting of PC3 (prostate), HCT116 (colon), A375 (melanoma), H1299 (lung), MIAPaCa-2 (pancreas), HL60 (leukemia), MCF7 (breast), MDA-MB-231 (breast) (T. Mosmann, J. Immunol. Meth., 1983, 65, 55-63). The cells were cultured at 37° C. in RMPI1640 medium supplemented with 10% fetal bovine serum, 50 IU/mL penicillin, and 50 μg/mL streptomycin in a 5% CO2 incubator. All cells were sub-cultured 3 times/week by trypsinisation. Viable cells were seeded and allowed to adhere for 12 h before a test drug was added in 96-well plates at an initial density of 1.0×10^5 cells/mL. Tumour cell lines were separately exposed to various concentrations of the tested compounds followed by incubation at a temperature of 37° C. during 96 h inside a medium of fresh RMPI 1640. Cells were subsequently incubated at 37° C. using MTT at 0.5 mg/mL during 4 h. After removal of supernatant, formazan crystals were dissolved in isopropanol and the optical density was measured at 570 nm. CX-4945 was used as a positive control.

H1299 (lung) = assay: In vitro cytotoxic activity (MTT) assay, H1299; type: cell-based; conditions: Homo sapiens, NCI-H1299, cells exposed for 96 hours, read-out: IC50, 50% inhibition of cell proliferation
Procedure: as §1

A375 (melanoma) = assay: In vitro cytotoxic activity (MTT) assay, A375; type: cell-based; conditions: Homo sapiens, A-375, cells exposed for 96 hours, read-out: IC50, 50% inhibition of cell proliferation
Procedure: as §1

MDA-MB-231 (breast) = assay: In vitro cytotoxic activity (MTT) assay, MDA-MB-231; type: cell-based; conditions: Homo sapiens, cells exposed for 96 hours, read-out: IC50, 50% inhibition of cell proliferation
Procedure: as §1

recombinant human CK2 = molecular target: T1, recombinant human CK2 (Homo sapiens, UniProt P68400); assay: CK2 Kinase Assay (33P-ATP, filter plate); type: biochemical; conditions: final ATP concentration 15 μM, 10 min at 30° C.; read-out: protein kinase CK2 IC50
T1 construct: purchased Millipore
T1 sequence (P68400 whole entry): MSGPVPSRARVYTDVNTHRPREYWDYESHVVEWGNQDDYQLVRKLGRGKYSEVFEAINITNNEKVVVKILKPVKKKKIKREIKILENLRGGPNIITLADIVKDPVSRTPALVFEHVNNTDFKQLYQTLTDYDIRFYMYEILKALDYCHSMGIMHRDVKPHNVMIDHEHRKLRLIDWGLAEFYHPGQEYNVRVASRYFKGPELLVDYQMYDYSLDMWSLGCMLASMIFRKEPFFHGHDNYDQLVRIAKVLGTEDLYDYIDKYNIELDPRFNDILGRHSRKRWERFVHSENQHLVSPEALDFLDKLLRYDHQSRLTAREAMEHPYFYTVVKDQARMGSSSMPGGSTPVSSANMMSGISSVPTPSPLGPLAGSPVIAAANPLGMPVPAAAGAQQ
T1 sequence (P67870 whole entry partner): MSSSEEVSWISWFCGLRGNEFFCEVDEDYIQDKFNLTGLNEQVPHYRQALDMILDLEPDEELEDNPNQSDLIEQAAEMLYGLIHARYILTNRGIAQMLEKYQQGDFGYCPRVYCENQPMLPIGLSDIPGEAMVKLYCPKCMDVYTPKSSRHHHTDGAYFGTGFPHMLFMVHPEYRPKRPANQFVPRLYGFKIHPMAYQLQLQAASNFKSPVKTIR
Procedure: CK2 Kinase Assay was conducted using the protocol as described in Pierre F. et al; J. Med. Chem. 2011, 54, 635-654. The tested compounds in aqueous solution were added at a volume of 10 μL to a reaction mixture comprising 10 μL of assay dilution buffer (ADB; 20 mM MOPS, pH 7.2, 25 mM β-glycerol phosphate, 5 mM EGTA, 1 mM sodium orthovanadate, and 1 mM dithiothreitol), 10 μL of substrate peptide (RRRDDDSDDD, dissolved in ADB at a concentration of 1 mM), 10 μL of recombinant human CK2 (RRfββ-holoenzyme, 25 ng dissolved in ADB; Millipore). Reactions were initiated by the addition of 10 μL of ATP solution (90% 75 mMMgCl2, 75 μM ATP (final ATP concentration:15 μM) dissolved in ADB; 10% [γ-33P] ATP (stock 1mCi/100 μL; 3000 Ci/mmol (Perkin-Elmer) and maintained for 10 min at 30° C. The reactions were quenched with 100 μL of 0.75% phosphoric acid and then transferred to and filtered through a phosphor cellulose filter plate (Millipore). After washing each well five times with 0.75% phosphoric acid, the plate was dried under vacuum for 5 min and, following the addition of 15 μL of scintillation fluid to each well, the residual radioactivity was measured using a Wallac […]. The IC50 values were derived from eight concentrations of test inhibitors.

HL60 (leukemia) = assay: In vitro cytotoxic activity (MTT) assay, HL60; type: cell-based; conditions: Homo sapiens, HL-60, cells exposed for 96 hours, read-out: IC50, 50% inhibition of cell proliferation
Procedure: as §1

PC3 (prostate) = assay: In vitro cytotoxic activity (MTT) assay, PC3; type: cell-based; conditions: Homo sapiens, Prostate cell, cells exposed for 96 hours, read-out: IC50, 50% inhibition of cell proliferation
Procedure: as §1

HCT116 (colon) = assay: In vitro cytotoxic activity (MTT) assay, HCT116; type: cell-based; conditions: Homo sapiens, HCT-116, cells exposed for 96 hours, read-out: IC50, 50% inhibition of cell proliferation
Procedure: as §1

MIAPaCa-2 (pancreas) = assay: In vitro cytotoxic activity (MTT) assay, MIAPaCa-2; type: cell-based; conditions: Homo sapiens, MIA PaCa-2, cells exposed for 96 hours, read-out: IC50, 50% inhibition of cell proliferation
Procedure: as §1

IC50 (recombinant human CK2): 12 nM
Compound: O=C(O)c1ccc2c(c1)cc1c(Nc3ccc(Cl)cc3)nc3ccncc3n12 [Compound 1, 6-((4-chlorophenyl)amino)pyrido[4′,3′:5,6]pyrazino[1,2-a]indole-9-carboxylic acid]
IC50 (MCF7 (breast)): 7800 nM
IC50 (H1299 (lung)): 3100 nM
IC50 (A375 (melanoma)): 2500 nM
IC50 (MDA-MB-231 (breast)): 6100 nM
IC50 (HL60 (leukemia)): 2800 nM
IC50 (PC3 (prostate)): 1600 nM
IC50 (HCT116 (colon)): 1900 nM
IC50 (MIAPaCa-2 (pancreas)): 900 nM
